Source: article PMC10648541, “Design, Synthesis, and Antiproliferative Activity of Selective Histone Deacetylases 6 Inhibitors Containing a Tetrahydropyridopyrimidine Scaffold” (Molecules, 2023)
Read-outs that look alike come from different tables or passages of the source.

Key:
[1] = tested on: HCT116; test: Antiproliferative assay (Alamar blue, 72 h), HCT116; format: cell-based; conditions: Homo sapiens, HCT-116, HCT116 cells, three independent experiments, SD < 10%, read-out: Antiproliferative effect IC50, HCT116
[2] = tested on: RPMI-8226; test: Antiproliferative assay (Alamar blue, 72 h), RPMI-8226; format: cell-based, human; conditions: RPMI-8226 cells, three independent experiments, SD < 10%, read-out: Antiproliferative effect IC50, RPMI-8226
Experimental: The cells were cultured in IMDM (Gibco) medium with 20% FBS (Lonsera), 100 U/mL penicillin, and 100 µg/mL streptomycin (Solarbio). All cells were maintained at 37 °C in a humidified atmosphere of 5% CO2 in air. Briefly, 100 µL cell suspension or completed medium was plated into a 96-well plate. Compounds were added and incubated for 72 h. Then, 22 µL Alamar blue solution (1 mM) was pipetted into each well of a 96-well plate, and the plate was incubated for an additional 5~6 h. The absorbance (OD) was read at 530/590 nm. Data were normalized to vehicle groups (DMSO) and represented as the means of three independent measurements with standard errors of <20%. The IC50 values were calculated using Prism 5.0.

[3] = tested on: HL60; test: Antiproliferative assay (Alamar blue, 72 h), HL60; format: cell-based; conditions: Homo sapiens, HL-60, HL60 cells, three independent experiments, SD < 10%, read-out: Antiproliferative effect IC50, HL60
[4] = target: T1, HDAC1 (Homo sapiens, UniProt Q13547); test: In vitro HDAC enzyme assay (Reaction Biology Corporation), HDAC1; format: biochemical; conditions: Table 1; duplicate, SD < 15%
T1 construct: purchased Reaction Biology Corporation

[5] = target: T2, HDAC6 (Homo sapiens, UniProt Q9UBN7); test: In vitro HDAC enzyme assay (Reaction Biology Corporation), HDAC6; format: biochemical; conditions: Table 1
T2 construct: purchased Reaction Biology Corporation
T2 sequence (Q9UBN7 1-1215): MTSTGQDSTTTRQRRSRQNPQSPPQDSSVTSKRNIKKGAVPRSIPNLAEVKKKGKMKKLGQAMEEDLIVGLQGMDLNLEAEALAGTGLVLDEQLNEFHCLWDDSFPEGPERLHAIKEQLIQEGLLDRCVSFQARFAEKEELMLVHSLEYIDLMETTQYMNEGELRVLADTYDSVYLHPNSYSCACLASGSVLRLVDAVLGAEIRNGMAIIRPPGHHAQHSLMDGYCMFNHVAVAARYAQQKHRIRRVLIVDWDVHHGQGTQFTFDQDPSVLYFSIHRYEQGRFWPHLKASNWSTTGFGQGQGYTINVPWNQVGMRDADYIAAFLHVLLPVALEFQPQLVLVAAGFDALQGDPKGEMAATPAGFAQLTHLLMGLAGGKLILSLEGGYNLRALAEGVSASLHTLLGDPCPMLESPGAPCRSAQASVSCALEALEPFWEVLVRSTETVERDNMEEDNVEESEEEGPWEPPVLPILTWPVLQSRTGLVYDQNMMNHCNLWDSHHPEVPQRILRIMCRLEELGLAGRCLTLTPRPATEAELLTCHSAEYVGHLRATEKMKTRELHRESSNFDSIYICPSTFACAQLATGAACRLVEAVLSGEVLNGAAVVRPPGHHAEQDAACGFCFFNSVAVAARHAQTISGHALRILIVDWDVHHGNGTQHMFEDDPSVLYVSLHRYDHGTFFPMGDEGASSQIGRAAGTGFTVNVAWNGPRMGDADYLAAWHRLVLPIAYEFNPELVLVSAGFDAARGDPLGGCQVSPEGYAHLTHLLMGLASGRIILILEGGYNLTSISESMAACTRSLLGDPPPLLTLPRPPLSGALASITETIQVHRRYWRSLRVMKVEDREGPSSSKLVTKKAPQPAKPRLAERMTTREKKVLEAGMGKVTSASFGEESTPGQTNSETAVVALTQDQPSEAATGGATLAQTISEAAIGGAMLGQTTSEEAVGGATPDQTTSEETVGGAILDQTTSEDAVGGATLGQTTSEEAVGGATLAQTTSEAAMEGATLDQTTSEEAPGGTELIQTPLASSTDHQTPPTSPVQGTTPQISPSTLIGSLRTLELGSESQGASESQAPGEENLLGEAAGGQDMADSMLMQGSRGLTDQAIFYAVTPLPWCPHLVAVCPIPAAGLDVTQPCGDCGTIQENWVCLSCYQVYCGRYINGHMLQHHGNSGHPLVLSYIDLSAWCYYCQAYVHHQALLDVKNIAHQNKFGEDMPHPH

[6] = tested on: acetylated α-tubulin; test: Western blot, acetylated α-tubulin in RPMI-8226 cells; format: cell-based, human; conditions: 24 h, 10 μM, compared to the vehicle
Experimental: (§1) RPMI-8226 cells (1 × 10^6) were seeded overnight and incubated with compound 8f for 24 h on indicated concentrations. Cell extract was prepared by lysing cultured cells with a mammalian protein extraction reagent supplemented with EDTA-free protease inhibitor for 15 min. SDS-PAGE and immunoblot analysis were conducted as described. Antibodies for Ac-H3 (abcom, AB32129) and Ac-ɑ-tubulin (Cell Signaling, 2144) were used.

[7] = tested on: acetylated histone 3 (H3); test: Western blot, acetylated histone 3 in RPMI-8226 cells; format: cell-based, human; conditions: 24 h, 10 μM, compared to the vehicle
Experimental: as §1

T1 sequence (Q13547 whole entry): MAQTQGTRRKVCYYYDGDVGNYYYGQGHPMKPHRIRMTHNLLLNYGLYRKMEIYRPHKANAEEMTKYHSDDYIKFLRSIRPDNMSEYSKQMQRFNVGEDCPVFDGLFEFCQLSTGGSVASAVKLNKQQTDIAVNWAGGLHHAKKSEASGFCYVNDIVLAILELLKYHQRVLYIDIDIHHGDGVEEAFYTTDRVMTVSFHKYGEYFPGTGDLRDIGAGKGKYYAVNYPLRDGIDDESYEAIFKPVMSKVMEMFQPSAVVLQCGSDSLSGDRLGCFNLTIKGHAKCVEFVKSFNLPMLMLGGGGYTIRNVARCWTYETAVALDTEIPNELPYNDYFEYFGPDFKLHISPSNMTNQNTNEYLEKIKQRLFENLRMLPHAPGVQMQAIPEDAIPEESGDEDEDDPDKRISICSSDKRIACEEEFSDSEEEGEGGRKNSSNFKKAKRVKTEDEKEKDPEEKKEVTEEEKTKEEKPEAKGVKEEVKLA

| SMILES | IC50 [1] [µM] | IC50 ([2]; Homo sapiens) [µM] | IC50 [3] [µM] | melting point [°C] | other results |
| --- | --- | --- | --- | --- | --- |
| O=C(CCCCCCNC(=O)c1cnc(N(c2ccccc2)c2ccccc2)nc1)NO [Compound 1, reference compound] | 6.5 | 1.7 | 4.1 |  |  |
| O=C(CCCCCCC(=O)N1CCc2c(nc(-c3ccccc3)nc2-c2ccccc2)C1)NO [Compound 8a, 8-(2,4-Diphenyl-5,8-dihydropyrido [3,4-d]pyrimidin-7(6H)-yl)-N-hydroxy-8-oxooctanamide] | 23.4 | 16.3 | 12.5 | 115 to 117 |  |
| Cc1ccc(-c2nc3c(c(-c4ccc(C)cc4)n2)CCN(C(=O)CCCCCCC(=O)NO)C3)cc1 [Compound 8b, 8-(2,4-di-p-tolyl-5,8-dihydropyrido [3,4-d]pyrimidin-7(6H)-yl)-N-hydroxy-8-oxooctanamide] |  |  |  | 110 to 112 |  |
| COc1ccc(-c2nc3c(c(-c4ccc(OC)cc4)n2)CCN(C(=O)CCCCCCC(=O)NO)C3)cc1 [Compound 8c, 8-(2,4-Bis(4-methoxyphenyl)-5,8-dihydropyrido [3,4-d]pyrimidin-7(6H)-yl)-N-hydroxy-8-oxooctanamide] | 4.72 | 4.63 | 3.78 | 117 to 118 | IC50 [4]: 0.472 µM |
| O=C(CCCCCCC(=O)N1CCc2c(nc(-c3ccoc3)nc2-c2ccoc2)C1)NO [Compound 8d, 8-(2,4-Di(furan-3-yl)-5,8-dihydropyrido [3,4-d]pyrimidin-7(6H)-yl)-N-hydroxy-8-oxooctanamide] |  |  |  | 104 to 106 |  |
| O=C(CCCCCCC(=O)N1CCc2c(nc(-c3ccsc3)nc2-c2ccsc2)C1)NO [Compound 8e, 8-(2,4-Di(thiophen-3-yl)-5,8-dihydropyrido [3,4-d]pyrimidin-7(6H)-yl)-N-hydroxy-8-oxooctanamide] |  |  |  | 123 to 124 |  |
| O=C(CCCCCCC(=O)N1CCc2c(nc(-c3cccs3)nc2-c2cccs2)C1)NO [Compound 8g, 8-(2,4-Di(thiophen-2-yl)-5,8-dihydropyrido [3,4-d]pyrimidin-7(6H)-yl)-N-hydroxy-8-oxooctanamide] |  |  |  | 128 to 129 |  |
| O=C(CCCCCCC(=O)N1CCc2c(nc(-c3ccc(C(F)(F)F)cc3)nc2-c2ccc(C(F)(F)F)cc2)C1)NO [Compound 8h, 8-(2,4-Bis(4-(trifluoromethyl)phenyl)-5,8-dihydropyrido [3,4-d]pyrimidin-7(6H)-yl)-N-hydroxy-8-oxooctanamide] |  |  |  | 145 to 146 | IC50 [4]: 0.551 µM; Selectivity Index ([5]; HDAC6 against HDAC1): 26; IC50 ([5]; duplicate, SD < 15%): 0.0215 µM |
| O=C(CCCCCCC(=O)Nc1ccccc1)NO [SAHA, reference compound] |  |  |  |  | levels of acetylated α-tubulin [6]: increased levels of both acetylated α-tubulin and acetylated histone H3 significantly; levels of acetylated histone H3 [7]: increased levels of both acetylated α-tubulin and acetylated histone H3 significantly; IC50 [2]: 0.66 µM |
